Tests used:
[1] = test system: DS-mice; assay: Analgesic activity (Haffner method), tail-root pinch in mice; assay type: in vivo; conditions: Mus musculus, tail-root pinch with forceps, no withdrawal response within 3 seconds, Bliss' method, read-out: Analgesic action, Haffner (ED50)
Description: 2. Analgesic activity (Haffner method);
The tail-roots of DS-mice (15 to 17 g body weight, male and female) are pinched with a pair of forceps. Pain responses, such as biting, head turning and vocalization are observed. All of the control animals respond to the noxious stimulus with in a period of one second. […] The ED50 is calculated by the Bliss' method [Ann. Appl. Biol., 22, 134; 307 (1935); Quat. J. Pharmacol., 11, 192 (1938)].

[2] = Acute toxicity (mortality, LD50) in mice; conditions: mouse, in vivo; DS-mice; mortality during 72 hours after administration; Bliss' method
Description: Ten DS-mice (15 to 17 g body weight, male and female) in every group are used in the test at each dose level. Each assay compound is tested in 4 to 5 doses. The mortality is counted during a period of 72 hours after the administration of the test compound. The LD50 is calculated by the Bliss' method.

[3] = test system: DS-mice; assay: Analgesic activity (Writhing method), phenylquinone-induced writhing in mice; assay type: in vivo; conditions: Mus musculus, ip, 0.25 h, phenylquinone i.p. 0.2 mg/10 g, 15 minutes, up-and-down method, read-out: Analgesic action, Writhing (ED50)
Description: 1. Analgesic activity (Writhing method);
DS-mice (15 to 17 g body weight, male and female) are treated with an intraperitoneal injection of 0.2 mg/10 g of 0.02 % phenylquinone solution as a writhing inducer and kept in an individual observation cage for 15 minutes after the administration of phenylquinone. […] The ED50 is calculated by the up-and-down method of Brownlee et al. [Fed.

Compound | ED50 [1] [mg/kg] | LD50 at 72 h [2] [mg/kg] | ED50 [3] [mg/kg]
Cc1c(N(C)C)c(=O)n(-c2ccccc2)n1C [Aminopyrine, reference compound] | 138 | 335 | 44
CN1CCc2ccc(O)cc2CCc2ccc(O)c(O)c2C1 [Compound 1] |  | 50 to 100 | 26
COc1ccc2c(c1OC)CN(C)CCc1ccc(O)cc1CC2 [Compound 2, 3,4-Dimethoxy-11-hydroxy-6-methyl-5,6,7,8.13,14-hexahydrodibenz[c,g]azecine] | 58 | 54.9 | 23.2
COc1ccc2c(c1OC)CN(C)CCc1cc(O)ccc1CC2 [Compound 3, 3,4-Dimethoxy-10-hydroxy-6-methyl-5,6,7,8,13,14-hexahydrodibenz[c,g]azecine] | 37.9 | 231 | 22.3
COc1ccc2c(c1OC)CN(C)CCc1cc(CO)c(O)cc1CC2 [Compound 4, 3,4-dimethoxy-11-hydroxy-10-hydroxymethyl-6-methyl-5,6,7,8,13,14-hexahydrodibenz[c,g]azecin] |  | > 500 | 45
CN1CCc2ccc(O)cc2CCc2cccc(O)c2C1.[O-][Cl+3]([O-])([O-])O [Compound 5, 4,11-Dihydroxy-6-methyl-5,6,7,8,13,14-hexahydrodibenz[c,g]azecine perchlorate] |  | 300 | 50
Br.CN1CCc2cc(O)ccc2CCc2ccc(O)c(O)c2C1 [Compound 6, 6-Methyl-3,4,10-trihydroxy-5,6,7,8,13,14-hexahydrodibenz[c,g]azecine hydrobromide] |  | 300 | 75
COc1ccc2c(c1OC)CNCCc1cc(O)ccc1CC2 [Compound 7, 3,4-dimethoxy-10-hydroxy-5,6,7,8,13,14-hexahydrodibenz[c,g]azecine] | 250 | 500 | 26.5

Source: patent publication US3932384A, “Dibenzazecines” (Shionogi & Co., Ltd., priority 1972, dated 1976)
